Reference: paper PMC11930985 (Nature Communications, 2025)
Where two headings read alike, the source gives them in different places.

Key:
AML patients = conditions: cited from earlier work; for Remissions (CR and CRi), patients: patients not eligible for intensive chemotherapy
CYP3A4 = system: CYP3A4; parameters: method as in Investigator's Brochure (IB) version 5.0; conditions: preliminary results; ref Investigator's Brochure (IB) version 5.0; cited from earlier work
AML/MDS patients = system: AML/MDS patients
Description: Safety assessments including standard clinical laboratory safety tests (hematology, biochemistry, coagulation, and urinalysis), physical examinations, vital signs (blood pressure, heart rate, respiration rate and temperature), and ECOG performance status were performed at baseline and throughout the study. Electrocardiograms were obtained at screening, Cycle 1 Day 1–4, 8, and 15, Cycle 2 Day 1, 8 and 15, at Day 1 of each cycle thereafter, (up to and including Cycle 15), and at Final Study Visit. QT prolongation was assessed using the Fridericia correction […] [34]. Severity of QTcF prolongation was defined as follows: Grade 1: maximum prolongation 450–480 ms; Grade 2: maximum prolongation 481-500 ms; Grade 3: ≥501 ms on at least two separate ECGs; Grade 4: ≥501 ms or >60 ms change from baseline, with Torsades de pointes, polymorphic ventricular tachycardia or signs/symptoms of serious arrythmia; Grade 5: Death.
Adverse events (AEs) were monitored starting at study enrolment until 28 days after end of treatment and graded according to the National Cancer Institute Common Terminology Criteria for Adverse Events (NCI-CTCAE) version 4.0. If drug-related toxicities continued beyond the follow-up period, patients were followed until all drug-related toxicities resolved to grade ≤1, stabilized or returned to baseline.

SMILES: Nc1ccn([C@@H]2O[C@H](CO)[C@@H](O)[C@@H]2O)c(=O)n1 [Cytarabine, reference compound]
- Response rate (AML patients; R/R-AML): < 20%
- Remissions (CR and CRi), patients (AML patients): less than 35%
- Extensive metabolism by CYP3A4 (CYP3A4): does not
- Patients with cytarabine dose-reduced (AML/MDS patients; LDAC cohorts): 4
- Patients with cytarabine interrupted (AML/MDS patients; human, in vivo): 8
- Patients with cytarabine withdrawn (AML/MDS patients; human, in vivo): 1

SMILES: Nc1ncn([C@@H]2O[C@H](CO)[C@@H](O)[C@H]2O)c(=O)n1 [azacitidine]
- Remissions (CR and CRi), patients (AML patients): less than 35%

SMILES: Nc1ncn([C@H]2C[C@H](O)[C@@H](CO)O2)c(=O)n1 [decitabine]
- Remissions (CR and CRi), patients (AML patients): less than 35%

SMILES: CC1(C)CCC(CN2CCN(c3ccc(C(=O)NS(=O)(=O)c4ccc(NCC5CCOCC5)c([N+](=O)[O-])c4)c(Oc4cnc5[nH]ccc5c4)c3)CC2)=C(c2ccc(Cl)cc2)C1 [venetoclax]
- Response rate (AML patients; HMA or LDAC plus venetoclax, venetoclax-naïve R/R-AML): 31%
- Response rates (AML patients; venetoclax added to less-intensive regimens (HMAs or LDAC), frontline): 60–75%
